Legend:
HCN channel current (Ih) = HCN channel current (Ih) measurement, voltage clamp of retinal ganglion cells; format: cell-based, Brown Norway rats; conditions: different concentrations; clamped at -60 mV, stepped to -80, -100 and -120 mV for 1 second; FIG. 11
retinal ganglion cells = experiment: Retinal ganglion cell input resistance measurement, voltage clamp; format: cell-based, Brown Norway rats; conditions: different concentrations; clamped at -60 mV, stepped to -55 mV; FIG. 12

COc1cc2c(cc1OC)CC(=O)N(CCCN(C)C[C@H]1Cc3cc(OC)c(OC)cc31)CC2 [Ivabradine, 3-[3-({[(7S)-3,4-dimethoxybicyclo[4.2.0]octa-1,3,5-trien-7-yl]methyl}(methyl)amino)propyl]-7,8-dimethoxy-2,3,4,5-tetrahydro-1H-3-benzazepin-2-one]
retinal ganglion cell HCN (Ih) mediated current (HCN channel current (Ih)): statistically significant decrease
retinal ganglion cell input resistance (retinal ganglion cells): increased with every concentration of Ivabradine in a linear manner

Source: US9333208B2, “HCN inhibitors affecting ganglion cell function and visual function” (Allergan, Inc., priority 2013, dated 2016)
